Experimental data from ChEMBL document CHEMBL1158466, “Discovery of novel 2-aminobenzamide inhibitors of heat shock protein 90 as potent, selective and orally active antitumor agents” (J Med Chem, 2009).

How the values were obtained:
[1] = Binding affinity to pig spleen Hsp90 ATPase pocket by Bradford assay; type: tissue-based, Sus scrofa
Heat shock protein HSP90 = Heat shock protein HSP90 (Homo sapiens, UniProt P07900+P08238); type: cell-based; details: au565

| Kd [1] | IC50 (Heat shock protein HSP90) | Structure (SMILES) |
| --- | --- | --- |
| 294 nM | > 4000 nM | Cc1cn(-c2ccc(C(N)=O)c(NCCN3CCOCC3)c2)c2c1C(=O)CC(C)(C)C2 |
| 15 nM | 111 nM | Cc1nn(-c2ccc(C(N)=O)c(NC3CC=CC3)c2)c2c1C(=O)CC(C)(C)C2 |
| 14 nM | 147 nM | Cc1nn(-c2ccc(C(N)=O)c(NC(C)S(C)(=O)=O)c2)c2c1C(=O)CC(C)(C)C2 (centres undefined) |
| 86 nM | 64 nM | Cc1c2c(n(-c3ccc(C(N)=O)c(N[C@H]4CC[C@H](O)CC4)c3)c1C)CC(C)(C)CC2=O |
| 20 nM | 9 nM | CCc1nn(-c2ccc(C(N)=O)c(N[C@H]3CC[C@H](O)CC3)c2)c2c1C(=O)CC(C)(C)C2 |
| 530 nM | – | CC1(C)CC(=O)c2c(C(F)(F)F)nn(-c3ccc(C(N)=O)c(N[C@H]4CC[C@@H](O)CC4)c3)c2C1 |
| 3730 nM | > 100000 nM | Cc1cc2c(n1-c1ccc(C(N)=O)cc1)CC(C)(C)CC2=O |
| 843 nM | > 7000 nM | Cc1cn(-c2ccc(C(N)=O)c(N3CCNCC3)c2)c2c1C(=O)CC(C)(C)C2 |
| 41 nM | 46 nM | CC1(C)CC(=O)c2c(CC3CC3)nn(-c3ccc(C(N)=O)c(N[C@H]4CC[C@H](O)CC4)c3)c2C1 |
| 78 nM | 181 nM | COCC(COC)Nc1cc(-n2nc(C(F)(F)F)c3c2CC(C)(C)CC3=O)ccc1C(N)=O |
| 220 nM | 490 nM | COc1cc(Nc2cc(-n3c(C)cc4c3CC(C)(C)CC4=O)ccc2C(N)=O)cc(OC)c1OC |
| 114 nM | 229 nM | Cc1nn(-c2ccc(C(N)=O)c(NC3CCC3)c2)c2c1C(=O)CC(C)(C)C2 |
| 16 nM | 30 nM | Cc1nn(-c2ccc(C(N)=O)c(N[C@H]3CC[C@H](O)CC3)c2)c2c1C(=O)CC(C)(C)C2 |
| 370 nM | 6400 nM | Cc1cc2c(n1-c1ccc(C(N)=O)c(Nc3ccccc3)c1)CC(C)(C)CC2=O |
| 216 nM | > 1000 nM | Cc1nn(-c2ccc(C(N)=O)c(NCc3ccco3)c2)c2c1C(=O)CC(C)(C)C2 |
| 94 nM | 264 nM | CC1(C)CC(=O)c2c(C(F)(F)F)nn(-c3ccc(C(N)=O)c(NCCCN4CCCC4=O)c3)c2C1 |
| 1020 nM | 418 nM | Cc1cn(-c2ccc(C(N)=O)c(N[C@@H](C)c3ccccc3)c2)c2c1C(=O)CC(C)(C)C2 |
| 690 nM | 1590 nM | COc1ccc(Nc2cc(-n3c(C)cc4c3CC(C)(C)CC4=O)ccc2C(N)=O)cc1 |
| 51 nM | 184 nM | Cc1nn(-c2ccc(C(N)=O)c(NCC3CC3)c2)c2c1C(=O)CC(C)(C)C2 |
| 67 nM | 115 nM | COCC(C)Nc1cc(-n2nc(C)c3c2CC(C)(C)CC3=O)ccc1C(N)=O (centres undefined) |
| 1960 nM | > 10000 nM | CCCCCc1cc(-n2c(C)cc3c2CC(C)(C)CC3=O)ccc1C(N)=O |
| > 50000 nM | > 10000 nM | CCCCOc1cc(-n2c(C)cc3c2CC(C)(C)CC3=O)ccc1C(N)=O |
| 390 nM | > 10000 nM | COCCNc1cc(-n2c(C)cc3c2CC(C)(C)CC3=O)ccc1C(N)=O |
| 177 nM | 203 nM | CC(C)c1nn(-c2ccc(C(N)=O)c(N[C@H]3CC[C@H](O)CC3)c2)c2c1C(=O)CC(C)(C)C2 |
| 98 nM | 16 nM | CC1(C)CC(=O)c2c(C(F)F)nn(-c3ccc(C(N)=O)c(N[C@H]4CC[C@H](O)CC4)c3)c2C1 |
| 390 nM | > 10000 nM | CCCCNc1cc(-n2c(C)cc3c2CC(C)(C)CC3=O)ccc1C(N)=O |
| 390 nM | 46 nM | COc1cc(Nc2cc(-n3cc(C)c4c3CC(C)(C)CC4=O)ccc2C(N)=O)cc(OC)c1OC |
| 940 nM | 1610 nM | COc1cc(Nc2cc(-n3cc(C)c4c3CCCC4=O)ccc2C(N)=O)cc(OC)c1OC |
| 1060 nM | > 10000 nM | Cc1cc2c(n1-c1ccc(C(N)=O)c(Sc3ccccc3)c1)CC(C)(C)CC2=O |

| Structure (SMILES) | Kd [1] | IC50 (Heat shock protein HSP90) |
| --- | --- | --- |
| COc1cc(Nc2cc(-n3ccc4c3CC(C)(C)CC4=O)ccc2C(N)=O)cc(OC)c1OC | 0.59 nM | 1830 nM |
